Data: ChEMBL document CHEMBL3507680, “University of Dundee, Gates Library screen for HepG2 cell viability”

Assay: Human HepG2 cell viability assay in 384 well format
Type: toxicity, cell-based
Set-up: dose 125 nL, time 70.5 hour; cytotoxicity at 70.5 h: concentration not given beside the values
Details: HepG2 cells, read-out: Inhibition

Row | SMILES | cytotoxicity at 70.5 h [%]
1 | Cc1nc2n(n1)CC(NCCc1cccs1)CC2 (stereo not given) | 0.958
2 | Cc1nccn1-c1ccc(C(C)NCCC(C)C)cc1 (stereo not given) | -1.85
3 | CCc1nc(C)c(C(C)N(C)CCc2ccncc2)s1 (stereo not given) | 0.87
4 | O=C(Cc1ccc(F)cc1)NCCNS(=O)(=O)c1ccc(F)c(F)c1 | -1.6
5 | O=C(C1CC1)N1CCC(c2nc(-c3ccccc3)n[nH]2)CC1 | -1.09
6 | CN(Cc1ccncc1)C(=O)Nc1cnn(CC(N)=O)c1 | -4.03
7 | Fc1cc(CNCCn2cccn2)ccc1-n1cncn1 | 1.79
8 | COc1ccc(F)cc1C(=O)N1CCn2c(nnc2C(F)(F)F)C1 | -5.57
9 | O=S(=O)(c1cc2ccccc2o1)N1CCCC1 | 4.69
10 | O=C(NCCNc1ccccn1)NC1CCOC2(CCCCC2)C1 (stereo not given) | 3.54
11 | Cc1nccn1-c1ccc(C(C)NCc2cc[nH]n2)cc1 (stereo not given) | -0.399
12 | O=C(c1cccc(F)c1F)N1CCn2c(nnc2C(F)(F)F)C1 | -4.83
13 | CCc1cnc(CN(C)C(C)C(=O)N2CCc3ccccc3C2)s1 (stereo not given) | 0.736
14 | Cc1nn(C)c(C)c1CCNC(C)c1ccc(-n2ccnc2C)cc1 (stereo not given) | -2.24
15 | CC(C(=O)N1CCc2ccccc2C1)N(C)Cc1cscn1 (stereo not given) | -4.2
16 | COCCCSc1ccc(NCc2cscn2)cc1 | -2.43
17 | O=C(c1ccc(F)cc1Cl)N1CCn2c(nnc2C(F)(F)F)C1 | 1.4
18 | Cc1nc(CNC(C)c2cccc(S(=O)(=O)N(C)C)c2)no1 (stereo not given) | 16.5
19 | Cc1nc(CNC(C)c2ccc(S(=O)(=O)N(C)C)cc2)no1 (stereo not given) | -2.76
20 | Cc1cc(C(=O)NCC2(N(C)C)CCCC2)c(C)n1-c1cccnc1 | -0.689
21 | CC(C)CCC(=O)NCc1ccc(N2CCCCC2)cc1 | -9.32
22 | Cc1ccc2ncn(CC(O)CN3CCC(C)CC3)c(=O)c2c1 (stereo not given) | 19.7

Row | SMILES | cytotoxicity at 70.5 h [%]
23 | N#Cc1ccc(NCC(=O)Nc2ccn(Cc3cccnc3)n2)cc1 | -9.9
24 | COCC(=O)N1CCN(c2ccc(C(=O)OC)cc2)CC1C (stereo not given) | 20.1
25 | COCCOCCNC(=O)c1ccc(N2CCC(C)=N2)cc1 | -3.96
26 | N#Cc1ccc(NCC(=O)Nc2ncn(Cc3cccnc3)n2)cc1 | -6.44
27 | N#Cc1cccnc1N[C@@H]1c2ccccc2C[C@@H]1O | -16.4
28 | CCC(CO)NC(=O)NCc1cc(C#N)ccc1F (stereo not given) | -9.99
29 | CC(NC(=O)c1ccnc(C2CC2)n1)C1(N2CCOCC2)CCCC1 (stereo not given) | -4.36
30 | Cn1nccc1CNS(=O)(=O)c1cc(F)ccc1Br | -6.89
31 | CCNC(=O)NC(C)c1nc(-c2ccc(Br)cc2)no1 (stereo not given) | -8.74
32 | CNC(=O)NC(C)c1nc(-c2ccc(Br)cc2)no1 (stereo not given) | 9.87
33 | N#Cc1ccc(C(=O)NCC2(N3CCOCC3)CCCC2)nc1 | -4.06
34 | CCCNC(=O)COc1ccc(-c2ccccc2)nc1 | -5.84
35 | CCN(CC)c1ncc(CNC2CCc3nc(C(C)C)nn3C2)s1 (stereo not given) | -5.99
36 | Cc1cccc(CNC(=O)Nc2ccn(CCCC(=O)N(C)C)n2)c1 | -7.9
37 | Cc1nc(C(=O)N(C)CC(=O)N(C)C)nn1-c1ccccc1C(C)C | 33.6
38 | CC(C)(C)c1noc(CCC(=O)N2CCN(Cc3ccc(Cl)s3)CC2)n1 | 25.8
39 | Cc1c(C(C)NC(=O)C2CCCCC2)cnn1C (stereo not given) | 5.03
40 | CN(C)C(=O)Cn1cc(C(=O)NCCc2cccc(Cl)c2Cl)nn1 | 2.52
41 | N#Cc1cccc(CN2C(=O)c3ccccc3CS2(=O)=O)c1 | -2.45
42 | Cc1nc2n(n1)CC(NCc1ccnc(-c3ccccc3)n1)CC2 (stereo not given) | -2.5
43 | Cc1c(C(=O)NCCN2C(=O)CCC2=O)sc2ccc(F)cc12 | 2.84
44 | CCCS(=O)(=O)NCC(C)(O)c1ccsc1 (stereo not given) | -4.32

Row | SMILES | cytotoxicity at 70.5 h [%]
45 | Cn1nc2c(cc1=O)CN(CC(=O)Nc1nccs1)CC2 | -3.23
46 | CN(C)c1ccc(NC(=O)c2ccnn2C)nc1 | 0.439
47 | OCC1(NCc2cnc(-c3ccccn3)s2)CCOCC1 | 28
48 | Cc1ccc(C(=O)Nc2ccc(N(C)C)cn2)n1C | 7.03
49 | COCCN(Cc1cccc(C#N)c1)Cc1nc(C)no1 | 28.5
50 | CC(C)(C)n1ncc2c1CCCC2NCc1ccc2c(c1)CCO2 (stereo not given) | 9.44
51 | CC(C)c1nc(CN2CCN(C(=O)Cc3ccccc3Cl)CC2)no1 | -1.7
52 | O=C(Nc1nnc(C(F)F)s1)N[C@H](CCO)c1ccccc1 | 0.703
53 | CN(C)c1ccc(C(=O)N(CCO)CC2CC2)c(F)c1 | 30.4
54 | Cc1nc(CN2CCN(C(=O)CCc3nc(C(C)(C)C)no3)CC2)cs1 | 5.21
55 | CC(C)(C)n1ncc2c1CCCC2NCc1ccsc1 (stereo not given) | -0.727
56 | Fc1ccc(CN2CCCCC2Cn2cncn2)c2ncccc12 (stereo not given) | 25.5
57 | O=S(=O)(NCCCN1CCCC1)c1cc(F)cc(F)c1 | 27.2
58 | Cc1ccc(C(=O)Nc2cc(C(N)=O)ccc2N2CCCCC2)cc1F | -2.35
59 | O=C(NC1CCN(Cn2nc(-c3ccccc3)oc2=O)CC1)C1CC1 | 1.77
60 | CCCS(=O)(=O)NCc1cccnc1OCc1ccccc1 | -7.41
61 | NC(=O)c1ccc(N2CCCCC2)c(NC(=O)c2ccc(Br)cc2)c1 | -4.44
62 | CC(C)c1ccc(C2(C(=O)NCCS(N)(=O)=O)CCC2)cc1 | -9.09
63 | Cc1cc(CN(C)C(=O)C2CCCN(C(N)=O)C2)no1 (stereo not given) | -5.82
64 | COCCNC(=O)Nc1cccc(COCCOC(C)C)c1 | -6.5
65 | Fc1ccc(CN2CCCC2Cn2cncn2)c2ncccc12 (stereo not given) | 2.94
66 | O=C(NC1CCC(C(=O)N2CCSCC2)CC1)N1CCOCC1 (stereo not given) | -5.82

Row | SMILES | cytotoxicity at 70.5 h [%]
67 | CN(Cc1cnn(C)c1)C(=O)CN1CCCC1Cn1cncn1 (stereo not given) | 21.4
68 | CC(C)OCCOCc1cccc(NC(=O)NCC(=O)N(C)C)c1 | -2.88
69 | Cc1cc(C(=O)NC2(c3cccc(F)c3)CCOCC2)no1 | -7.78
70 | Cc1ccc(S(=O)(=O)NCCCN2CCC(O)CC2)cc1Cl | 4.78
71 | Fc1ccc(CN2CCOC(Cn3cncn3)C2)c2ncccc12 (stereo not given) | -3.84
72 | CC(C)C1CN(C(=O)c2ccsc2)CCS1 (stereo not given) | -9.62
73 | Cn1ncnc1CNc1ccc2c(c1)N(C(=O)OC(C)(C)C)CCC2 | -8.19
74 | Clc1cc(CN2CCCC(Cn3cncn3)C2)c2ncccc2c1 (stereo not given) | -12.2
75 | CN(Cc1cccc(F)c1)C(=O)CN1CCCC(Cn2cncn2)C1 (stereo not given) | 15.6
76 | CN(Cc1ccccc1)C(=O)CSc1ccc2c(c1)OCCO2 | 2.14
77 | CCc1cc(NC(=O)C(c2cccc(F)c2)N2CCOCC2)[nH]n1 (stereo not given) | -4.49
78 | Cc1c(C(=O)NCC(C)C)nnn1-c1cccc2c1CCN(CCO)C2 | -2.54
79 | COc1cc(C(=O)N(Cc2ccco2)C2CC2)cc(OC)c1OC | 23.7
80 | COc1cc(NC(=O)c2ccc(Cl)cc2F)c(C(=O)N(C)C)cc1OC | -11.5
81 | COc1cc(NC(=O)c2ccc(C)cc2C)c(C(=O)N(C)C)cc1OC | 4.46
82 | O=C(COc1cccc2c1CCC2=O)NCCc1cccs1 | 12.1
83 | O=C(COc1cccc2c1CCC2=O)NCc1ccccc1Cl | -10.6
84 | Cc1c(Br)cccc1C(=O)NCC1CCCNC1 (stereo not given) | 2.2
85 | Cc1c(Br)cccc1C(=O)NCC1CCNCC1 | 8.92
